PubChem BioAssay AID248 (DTP/NCI, 2004)
Values joined by “and” are separate entries in the source; they are usually repeats but may differ in a detail not shown here. Equal values may be shown once. Toxic doses and inconclusive results are not listed.

Test system: L1210 leukemia ip in BDF1 mice, survival T/C
Assay: NCI In Vivo Anticancer Drug Screen. Data for tumor model L1210 Leukemia (intraperitoneal) in B6D2F1 (BDF1) mice
Settings: endpoint: mean survival time, higher = longer survival
Method: The antitumor activity of compounds was measured in mice bearing transplantable tumors. Survival or tumor size were measured and the results are expressed as the measurement made in the treated group (T) divided by the measurement made in the vehicle treated control group (C). The tumor model used in this assay is L1210 Leukemia (intraperitoneal) in B6D2F1 (BDF1) mice

[1] = dose: 100.0 mg/kg/injection, schedule: Q01DX001 (ip), vehicle: saline
[2] = dose: 200.0 mg/kg/injection, schedule: Q01DX001 (ip), vehicle: saline
[3] = dose: 400.0 mg/kg/injection, schedule: Q01DX001 (ip), vehicle: saline

CCCCCCCCCCCCCCCCCCCCCCCCC(O)C(=O)NC(CO)C(O)C(O)CCCCCCCCCCCCCC (stereo not given)
T/C (dose: 100.0 mg/kg/injection, schedule: Q01DX009 (ip), vehicle: saline with Tween-80): 88 % of control
T/C (dose: 100.0 mg/kg/injection, schedule: Q04DX003 (ip), vehicle: saline with Tween-80): 87 % of control
T/C (dose: 200.0 mg/kg/injection, schedule: Q01DX009 (ip), vehicle: saline with Tween-80): 94 % of control
T/C (dose: 200.0 mg/kg/injection, schedule: Q04DX003 (ip), vehicle: saline with Tween-80): 92 % of control
T/C (dose: 400.0 mg/kg/injection, schedule: Q01DX009 (ip), vehicle: saline with Tween-80): 88 % of control
T/C (dose: 400.0 mg/kg/injection, schedule: Q04DX003 (ip), vehicle: saline with Tween-80): 87 % of control

COC1OC(COC(C)=O)C(OC(C)=O)C1OC(C)=O (stereo not given)
T/C [1]: 102 % of control
T/C [2]: 104 % of control
T/C [3]: 93 % of control

NC(N)=NCCCNCCCN=C(N)N
T/C (dose: 17.5 mg/kg/injection, schedule: Q01DX Z (oral), vehicle: saline): 100 % of control
T/C (dose: 35.0 mg/kg/injection, schedule: Q01DX Z (oral), vehicle: saline): 101 % of control
T/C (dose: 70.0 mg/kg/injection, schedule: Q01DX Z (oral), vehicle: saline): 114 % of control
T/C (dose: 140.0 mg/kg/injection, schedule: Q01DX Z (oral), vehicle: saline): 117 % of control

N#CC(/C=C/c1ccccc1)Nc1ccccc1N (stereo not given)
T/C (dose: 100.0 mg/kg/injection, schedule: Q01DX001 (ip), vehicle: saline with Tween-80): 91 % of control
T/C (dose: 200.0 mg/kg/injection, schedule: Q01DX001 (ip), vehicle: saline with Tween-80): 94 % of control
T/C (dose: 400.0 mg/kg/injection, schedule: Q01DX001 (ip), vehicle: saline with Tween-80): 86 % of control

[N-]=[N+]=CC(=O)NCC(=O)NO
T/C (dose: 50.0 mg/kg/injection, schedule: Q01DX001 (ip), vehicle: water): 117 % of control
T/C (dose: 75.0 mg/kg/injection, schedule: Q01DX009 (ip), vehicle: water): 95 % of control
T/C (dose: 100.0 mg/kg/injection, schedule: Q01DX001 (ip), vehicle: water): 96 % of control
T/C (dose: 100.0 mg/kg/injection, schedule: Q01DX009 (ip), vehicle: other): 100 % of control
T/C (dose: 150.0 mg/kg/injection, schedule: Q01DX009 (ip), vehicle: water): 120 % of control
T/C (dose: 180.0 mg/kg/injection, schedule: Q01DX001 (ip), vehicle: water): 116 % of control
T/C (dose: 200.0 mg/kg/injection, schedule: Q01DX001 (ip), vehicle: water): 102 % of control
T/C (dose: 200.0 mg/kg/injection, schedule: Q01DX009 (ip), vehicle: other): 101 % of control
T/C (dose: 270.0 mg/kg/injection, schedule: Q01DX001 (ip), vehicle: water): 110 % of control
T/C (dose: 270.0 mg/kg/injection, schedule: Q01DX009 (ip), vehicle: water): 155 % of control
T/C (dose: 300.0 mg/kg/injection, schedule: Q01DX009 (ip), vehicle: other): 111 % of control
T/C (dose: 300.0 mg/kg/injection, schedule: Q01DX009 (ip), vehicle: water): 123 % of control
T/C (dose: 400.0 mg/kg/injection, schedule: Q01DX001 (ip), vehicle: water): 108 % of control and 111 % of control and 113 % of control
T/C (dose: 450.0 mg/kg/injection, schedule: Q01DX008 (ip), vehicle: water): 150 % of control
T/C (dose: 500.0 mg/kg/injection, schedule: Q01DX009 (ip), vehicle: other): 97 % of control
T/C (dose: 600.0 mg/kg/injection, schedule: Q01DX009 (ip), vehicle: water): 91 % of control
T/C (dose: 1600.0 mg/kg/injection, schedule: Q01DX001 (ip), vehicle: water): 90 % of control

OC1C2CCN(CC2)C1CNC12CC3CC(CC(C3)C1)C2 (stereo not given)
T/C (dose: 100.0 mg/kg/injection, schedule: Q04DX003 (ip), vehicle: saline): 97 % of control
T/C (dose: 200.0 mg/kg/injection, schedule: Q04DX003 (ip), vehicle: saline): 96 % of control

c1ccc(C2=Nc3ccccc3N=C3CCCC32)cc1 (stereo not given)
T/C (dose: 100.0 mg/kg/injection, schedule: Q01DX001 (ip), vehicle: carboxymethylcellulose (CMC)): 103 % of control
T/C (dose: 200.0 mg/kg/injection, schedule: Q01DX001 (ip), vehicle: carboxymethylcellulose (CMC)): 100 % of control
T/C (dose: 400.0 mg/kg/injection, schedule: Q01DX001 (ip), vehicle: carboxymethylcellulose (CMC)): 97 % of control

CC(=O)Nc1snc(C)c1[N+](=O)[O-]
T/C [1]: 107 % of control
T/C [2]: 103 % of control
T/C [3]: 103 % of control

ClCC1CC2CC1C1OC21 (stereo not given)
T/C [1]: 106 % of control

CCOP(=O)(OCC)C(c1ccccc1)(c1ccccc1)c1ccccc1
T/C (dose: 100.0 mg/kg/injection, schedule: Q04DX002 (ip), vehicle: saline with Tween-80): 90 % of control
T/C (dose: 200.0 mg/kg/injection, schedule: Q04DX002 (ip), vehicle: saline with Tween-80): 90 % of control
T/C (dose: 400.0 mg/kg/injection, schedule: Q04DX002 (ip), vehicle: saline with Tween-80): 90 % of control
